According to patent US4994582A, “Novel antibiotic NK130119” (Nippon Kayaku Kabushiki Kaisha, priority 1989, dated 1991):
In brackets after ≈: the same amount, converted by molar mass. Where two headings read alike, the source gives them in different places.

Key:
[1] = test system: human melanoma cells (G361); experiment: growth-inhibitory effect on human melanoma cells, dye exclusion method; format: cell-based; settings: G-361, 72 hours
Experimental: The growth-inhibitory effects of the compound of the present invention on mouse melanoma cells (B16) and human melanoma cells (G361) were examined. A 96-well plate was inoculated with mouse melanoma cells at a ratio of 1.5×10^3 cells per well, while another 96-well plate was inoculated with human melanoma cells at a ratio of 1.0×10^3 per well. These cells were incubated in an incubator at 37° C. under 5% CO2. Then the compound of the present invention was added thereto at various concentrations. Cells in each well were counted by the dye exclusion method 72 hours after the addition to thereby evaluate the growth-inhibitory effect of the test compound on the mouse melanoma cells and that on the human melanoma cells at various concentrations.

Botrytis cinera = experiment: antifungal spectrum on potato sucrose agar medium; format: cell-based; settings: read-out: Minimum inhibitory concentration
From the text: (§1) the antifungal spectrum of the compound of the present invention was examined.
(*) potato sucrose agar medium was used.

Rhizopus hangchao = experiment: antifungal spectrum on Czapek Dox solution agar; format: cell-based; settings: read-out: Minimum inhibitory concentration
From the text: as §1

Saccharomyces cerevisiae = experiment: antifungal spectrum on Czapek Dox solution agar; format: cell-based; settings: read-out: Minimum inhibitory concentration
From the text: as §1

Aspergillus oryzae = experiment: antifungal spectrum on Czapek Dox solution agar; format: cell-based; settings: read-out: Minimum inhibitory concentration
From the text: as §1

[2] = test system: Sporobolomyces salmonicolor; experiment: antifungal spectrum on Czapek Dox solution agar; format: cell-based; settings: read-out: Minimum inhibitory concentration
From the text: as §1

Penicillium chrysogenum = experiment: antifungal spectrum on Czapek Dox solution agar; format: cell-based; settings: read-out: Minimum inhibitory concentration
From the text: as §1

Mucor javanicus = experiment: antifungal spectrum on Czapek Dox solution agar; format: cell-based; settings: read-out: Minimum inhibitory concentration
From the text: as §1

Candida albicans = experiment: antifungal spectrum on Czapek Dox solution agar; format: cell-based; settings: read-out: Minimum inhibitory concentration
From the text: as §1

Aspergillus niger = experiment: antifungal spectrum on Czapek Dox solution agar; format: cell-based; settings: read-out: Minimum inhibitory concentration
From the text: as §1

Mycosphaerella melonis = experiment: antifungal spectrum on Czapek Dox solution agar; format: cell-based; settings: read-out: Minimum inhibitory concentration
From the text: as §1

Fusarium roseum f. sp. = experiment: antifungal spectrum on Czapek Dox solution agar; format: cell-based; settings: Fusarium sambucinum, read-out: Minimum inhibitory concentration
From the text: as §1

Altenaria kikuchiana = experiment: antifungal spectrum on Czapek Dox solution agar; format: cell-based; settings: read-out: Minimum inhibitory concentration
From the text: as §1

[3] = test system: mouse pulmonary cancer cells (LL); experiment: growth-inhibitory effect on mouse pulmonary cancer cells, dye exclusion method; format: cell-based; settings: 72 h, three days
Experimental: the growth-inhibitory effects of the compound of the present invention on mouse pulmonary cancer cells (LL) and human plumonary cancer cells (PC-3) were examined.
A 96-well plate was inoculated with mouse polmonary cancer cells at a ratio of 8.0×10^2 cells per well, while another 96-well plate was inoculated with human pulmonary cancer cells at a ratio of 2.5×10^3 per well. These cells were incubated in an incubator at 37° C. under 5% CO2 for 24 hours. Then the compound of the present invention was added thereto at various concentrations. Cells in each well were counted by the dye exclusion method three days after the addition to thereby evaluate the growth-inhibitory effect of the test compound on the mouse pulmonary cancer cells (LL) and that on the human pulmonary cancer cells (PC-3).

[4] = test system: larva of mosquito culices (a sensitive species); experiment: insecticidal action, mortality of mosquito larvae; format: in vivo; settings: read-out: Mortality rate, larvae of mosquito
Experimental: The insecticidal action of the compound of the present invention was examined by the following method.
(2) A larva of mosquito culices (a sensitive species) was used as a test vermin, and the mortality rate thereof was assayed according to an ordinary method (described on page 109 of "Noyaku Jikkenho I, Sacchuzaihen" published by Soft Science, Inc.).
Specifically, 10 ml of well water was placed in a vessel (15-ml Petridish), and 5 larvae of mosquito culices (the third stage) were released in the vessel. A solution of the compound of the present invention in acetone (0.1%) was added thereto so as to have a predetermined concentration. The vessel was allowed to stand in a thermostatic chamber (26°±1° C.) for a predetermined period of time, and the life and death of the test vermin were investigated.

[5] = test system: human colonic cancer cells (SW1116); experiment: growth-inhibitory effect on human colonic cancer cells, dye exclusion method; format: cell-based; settings: SW 1116
Experimental: The growth-inhibitory effects of the compound of the present invention on mouse colonic cancer cells (Colon 26) and human colonic cancer cells (SW1116) were examined. A 96-well plate was inoculated with mouse colonic cancer cells at a ratio of 1.5×10^3 cells per well, while another 96-well plate was inoculated with human colonic cancer cells at a ratio of 3.0×10^3 per well. These cells were incubated in an incubator at 37° C. under 5% CO2 for 24 hours. Then the compound of the present invention was added thereto at various concentrations. Cells in each well were counted by the dye exclusion method 65 hours and 96 hours after the addition to thereby evaluate the growth-inhibitory effect of the test compound on the mouse colonic cancer cells and that on the human colonic cancer cells.

[6] = test system: bovine adrenal capillary endothelial cells; experiment: growth-inhibitory effect on endothelial cells, Coulter counter; format: cell-based; settings: Bos taurus, Endothelial cell, 72 h, three days
Experimental: The growth-inhibitory effect of the compound of the present invention on endothelial cells was examined. A 96-well plate was inoculated with bovine adrenal capillary endothelial cells at a ratio of 1×10^4 cells per well. One day after the inoculation, the compound of the present invention was added thereto at various concentrations. Cells in each well were counted with a Coulter counter three days after the addition to thereby evaluate the growth-inhibitory effect of the test compound on the capillary endothelial cells. […] Thus the IC50 of the compound of the present invention on the endothelial cells was 0.0003 μg/ml, showing a strong growth-inhibitory effect.

## CCC1/C=C/C=C/CC(C)C(O)C(C)(O)C(=O)C(C)C(O)C(C)C(=O)C(C)C(O)C(C)/C=C/C(=O)OC2C(C)C(CC1)OC1(CCC(C)C(CC(C)O)O1)C2CC (centres unmarked) [NK130119]
[1]; human melanoma cells (G361)
  IC50: 1.63 µg/mL (≈ 2.02 µM)
[1]; Homo sapiens, G361, 0.0006 μg/ml, read-out: Growth-inhibitory ratio
  inhibition at 0.0006 µg/mL: -2.01%
[1]; Homo sapiens, G361, 0.0024 μg/ml, read-out: Growth-inhibitory ratio
  inhibition at 0.0024 µg/mL: 5.3%
[1]; Homo sapiens, G361, 0.0097 μg/ml, read-out: Growth-inhibitory ratio
  inhibition at 0.0097 µg/mL: 10.8%
[1]; Homo sapiens, G361, 0.039 μg/ml, read-out: Growth-inhibitory ratio
  inhibition at 0.039 µg/mL: 29.6%
[1]; Homo sapiens, G361, 0.156 μg/ml, read-out: Growth-inhibitory ratio
  inhibition at 0.156 µg/mL: 33.9%
[1]; Homo sapiens, G361, 0.625 μg/ml, read-out: Growth-inhibitory ratio
  inhibition at 0.625 µg/mL: 36%
[1]; Homo sapiens, G361, 2.5 μg/ml, read-out: Growth-inhibitory ratio
  inhibition at 2.5 µg/mL: 56.2%
[1]; Homo sapiens, G361, 10 μg/ml, read-out: Growth-inhibitory ratio
  inhibition at 10 µg/mL: 89.6%
Botrytis cinera
  MIC: 6.25 µg/mL (≈ 7.76 µM)
Rhizopus hangchao
  MIC: > 100 µg/mL
Saccharomyces cerevisiae
  MIC: > 100 µg/mL
Aspergillus oryzae
  MIC: 1.56 µg/mL (≈ 1.94 µM)
[2]
  MIC: > 100 µg/mL
Penicillium chrysogenum
  MIC: 0.78 µg/mL (≈ 0.969 µM)
Mucor javanicus
  MIC: > 100 µg/mL
Candida albicans
  MIC: > 100 µg/mL
Aspergillus niger
  MIC: 1.56 µg/mL (≈ 1.94 µM)
Mycosphaerella melonis
  MIC: 1.56 µg/mL (≈ 1.94 µM)
Fusarium roseum f. sp.
  MIC: 0.39 µg/mL (≈ 0.484 µM)
Altenaria kikuchiana
  MIC: 0.78 µg/mL (≈ 0.969 µM)
[3]; mouse pulmonary cancer cells (LL)
  IC50: 0.0085 µg/mL (≈ 0.0106 µM)
[3]; mouse pulmonary cancer cells, 0.0006 μg/ml, read-out: Growth-inhibitory ratio
  inhibition at 0.0006 µg/mL: 21.6%
[3]; mouse pulmonary cancer cells, 0.0024 μg/ml, read-out: Growth-inhibitory ratio
  inhibition at 0.0024 µg/mL: 14.5%
[3]; mouse pulmonary cancer cells, 0.0098 μg/ml, read-out: Growth-inhibitory ratio
  inhibition at 0.0098 µg/mL: 54.4%
[3]; mouse pulmonary cancer cells, 0.039 μg/ml, read-out: Growth-inhibitory ratio
  inhibition at 0.039 µg/mL: 61%
[3]; mouse pulmonary cancer cells, 0.156 μg/ml, read-out: Growth-inhibitory ratio
  inhibition at 0.156 µg/mL: 66.2%
[3]; mouse pulmonary cancer cells, 0.625 μg/ml, read-out: Growth-inhibitory ratio
  inhibition at 0.625 µg/mL: 68.8%
[3]; mouse pulmonary cancer cells, 2.5 μg/ml, read-out: Growth-inhibitory ratio
  inhibition at 2.5 µg/mL: 83.7%
[3]; mouse pulmonary cancer cells, 10 μg/ml, read-out: Growth-inhibitory ratio
  inhibition at 10 µg/mL: 102%
[4]; 48 h, after 2 days
  mortality at 1 ppm: 73%
  mortality at 10 ppm: 100%
[4]; 144 h, after 6 days
  mortality at 1 ppm: 80%
  mortality at 10 ppm: 100%
[4]; 216 h, after 9 days
  mortality at 1 ppm: 80%
  mortality at 10 ppm: 100%
[5]; Homo sapiens, SW1116, 0.0006 μg/ml, read-out: Growth-inhibitory ratio
  inhibition at 0.0006 µg/mL: 2.29%
[5]; Homo sapiens, SW1116, 0.0024 μg/ml, read-out: Growth-inhibitory ratio
  inhibition at 0.0024 µg/mL: -1.4%
[5]; Homo sapiens, SW1116, 0.0098 μg/ml, read-out: Growth-inhibitory ratio
  inhibition at 0.0098 µg/mL: -0.24%
[5]; Homo sapiens, SW1116, 0.039 μg/ml, read-out: Growth-inhibitory ratio
  inhibition at 0.039 µg/mL: 50.7%
[5]; Homo sapiens, SW1116, 0.156 μg/ml, read-out: Growth-inhibitory ratio
  inhibition at 0.156 µg/mL: 50.3%
[5]; Homo sapiens, SW1116, 0.625 μg/ml, read-out: Growth-inhibitory ratio
  inhibition at 0.625 µg/mL: 47.8%
[5]; Homo sapiens, SW1116, 2.5 μg/ml, read-out: Growth-inhibitory ratio
  inhibition at 2.5 µg/mL: 47.2%
[5]; Homo sapiens, SW1116, 10 μg/ml, read-out: Growth-inhibitory ratio
  inhibition at 10 µg/mL: 80.2%
[5]; human colonic cancer cells (SW1116), cells counted 65 hours and 96 hours after addition
  IC50: 2.8 µg/mL (≈ 3.48 µM)
[6]; bovine adrenal capillary endothelial cells
  IC50: 0.0003 µg/mL (≈ 0.000373 µM)
[6]; endothelial cells, 0.000128 μg/ml, read-out: Growth-inhibitory ratio
  inhibition at 0.000128 µg/mL: 35.2%
[6]; endothelial cells, 0.00064 μg/ml, read-out: Growth-inhibitory ratio
  inhibition at 0.00064 µg/mL: 62.9%
[6]; endothelial cells, 0.0032 μg/ml, read-out: Growth-inhibitory ratio
  inhibition at 0.0032 µg/mL: 77.9%
[6]; endothelial cells, 0.016 μg/ml, read-out: Growth-inhibitory ratio
  inhibition at 0.016 µg/mL: 90.1%
